From ChEMBL document CHEMBL1201862, “PubChem BioAssay data set” (2004)
Active and inactive are the calls of the source.

Legend:
[1] = viability loss in human Jurkat cells – cell-based, luminescence, cytotoxicity control for P. falciparum gametocyte viability project, dose response (AID 1117277); type: functional;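 note: potency reflects loss of cellular ATP meaning fewer viable cells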
[2] = viability inhibitors of stage V gametocytes – luminescence, dose response (AID 1117278); type: functional, cell-based;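 note: gametocytes exposed to compound for 24 hours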
[3] = toxicity to human HepG2 hepatoma cells – cell-based, plate reader, dry powder samples, cytotoxicity control, dose response (AID 1159569); type: functional;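 note: inhibitor potency with signal falling toward the positive control level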
[4] = growth inhibition of yeast DHODH-expressing 3D7 parasites – SYBR Green, dry powder samples, dose response (AID 1159570); type: functional, cell-based;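 note: parasite growth measured after 72 hours of compound exposure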
[5] = P. falciparum Dd2 growth inhibitors, dose response, SYBR Green, cherry-picked samples (AID 1159567); type: functional, cell-based
[6] = Dd2 malaria parasite growth inhibition potency – SYBR Green, dry powder samples, dose response (AID 1159566); type: functional, cell-based;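 note: potency for growth inhibition with lower SYBR green DNA signal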
[7] = growth inhibition of PfATP4-mutant resistant parasites – NITD609-resistant line, SYBR Green, dry powder, dose response (AID 1159571); type: functional, cell-based;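 note: parasites synchronized at ring stage by sorbitol before testing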
[8] = toxicity to human hepatoma HepG2 cells – cell-based, cherry-picked samples, cytotoxicity control, dose response (AID 1159577); type: functional
Estrogen receptor = target: T1, Estrogen receptor (Homo sapiens, UniProt P03372);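 note: potency for inhibiting coactivator peptide recruitment to the receptor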
T1 sequence (P03372 whole entry): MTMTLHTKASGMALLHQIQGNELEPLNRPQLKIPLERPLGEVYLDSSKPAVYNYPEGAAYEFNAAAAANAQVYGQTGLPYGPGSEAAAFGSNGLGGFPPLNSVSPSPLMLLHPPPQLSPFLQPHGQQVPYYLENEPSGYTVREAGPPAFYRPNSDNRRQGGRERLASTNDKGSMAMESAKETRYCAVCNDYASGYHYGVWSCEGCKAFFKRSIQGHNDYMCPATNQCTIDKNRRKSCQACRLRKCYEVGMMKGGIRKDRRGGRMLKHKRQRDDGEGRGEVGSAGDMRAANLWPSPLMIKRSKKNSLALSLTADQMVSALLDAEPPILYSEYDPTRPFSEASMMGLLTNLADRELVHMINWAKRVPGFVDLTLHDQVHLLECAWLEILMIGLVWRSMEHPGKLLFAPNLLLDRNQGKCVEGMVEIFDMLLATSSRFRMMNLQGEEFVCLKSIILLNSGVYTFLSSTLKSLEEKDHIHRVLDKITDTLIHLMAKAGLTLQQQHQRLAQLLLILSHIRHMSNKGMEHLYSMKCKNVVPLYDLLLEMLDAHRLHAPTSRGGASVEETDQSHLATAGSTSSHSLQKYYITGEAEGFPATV

[9] = target: T2, Heat shock factor protein 1 (Mus musculus, UniProt P38532); assay: decrease of HSF1-responsive luciferase luminescence – cell-based, NIH3T3, dose retest, confirmation (AID 2382); type: functional;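 note: NIH3T3 fibroblasts with HSF1-driven luciferase reporter stressed by proteasome inhibitor MG132; luminescence from HSF1-driven luciferase expression after 8 hours of MG132 stress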
T2 sequence (P38532 whole entry): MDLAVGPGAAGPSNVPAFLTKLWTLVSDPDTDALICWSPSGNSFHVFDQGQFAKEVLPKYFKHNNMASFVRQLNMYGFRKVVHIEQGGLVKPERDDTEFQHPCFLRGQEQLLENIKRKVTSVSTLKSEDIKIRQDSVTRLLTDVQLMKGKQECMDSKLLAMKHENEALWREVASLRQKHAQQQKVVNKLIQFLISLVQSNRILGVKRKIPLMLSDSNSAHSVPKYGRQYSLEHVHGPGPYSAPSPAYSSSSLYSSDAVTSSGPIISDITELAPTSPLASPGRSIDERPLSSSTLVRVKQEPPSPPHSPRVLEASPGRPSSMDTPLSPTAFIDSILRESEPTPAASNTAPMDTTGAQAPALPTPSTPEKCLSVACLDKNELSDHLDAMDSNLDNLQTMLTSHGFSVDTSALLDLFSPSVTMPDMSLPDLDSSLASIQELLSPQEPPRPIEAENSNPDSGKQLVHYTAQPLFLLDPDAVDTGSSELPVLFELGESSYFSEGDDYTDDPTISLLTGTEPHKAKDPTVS

cells = type: functional, cell-based; details: HEK-CNG
Galanin receptor type 3 = target: T3, Galanin receptor type 3 (Homo sapiens, UniProt O60755); assay: Fluorescence-based cell-based primary high throughput dose response assay to identify antagonists of the Galanin Receptor 3 (GalR3).; type: functional
T3 sequence (O60755 whole entry): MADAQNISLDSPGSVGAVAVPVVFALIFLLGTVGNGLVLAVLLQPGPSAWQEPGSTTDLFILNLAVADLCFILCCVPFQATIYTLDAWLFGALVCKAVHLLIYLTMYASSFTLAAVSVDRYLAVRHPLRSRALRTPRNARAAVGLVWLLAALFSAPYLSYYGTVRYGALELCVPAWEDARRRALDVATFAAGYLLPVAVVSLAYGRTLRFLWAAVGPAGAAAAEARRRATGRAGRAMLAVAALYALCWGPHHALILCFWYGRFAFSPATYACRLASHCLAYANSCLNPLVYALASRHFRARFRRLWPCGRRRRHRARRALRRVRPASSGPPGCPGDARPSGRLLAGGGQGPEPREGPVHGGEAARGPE

[10] = T. cruzi growth inhibition in host cells, dose response, cell-based, plate reader, dry powder, set 2 (AID 652275); type: functional
[11] = blockers of bursicon-stimulated LGR2 cAMP reporter – cell-based, HEK293, CRE-luciferase reporter, cherry pick, set 2, dose response (AID 743343); type: functional;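 note: transfected cells were stimulated with diluted bursicon conditioned medium after compound addition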
[12] = blockade of melanocortin 4 receptor signaling – cell-based, plate reader, cherry pick, counter-screen for LGR2 antagonist project, dose response (AID 743444); type: functional;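 note: transfected HEK 293 cells stimulated with alpha-MSH peptide; potency of inhibitors of the alpha-MSH evoked signal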
[13] = viability of PTEN-deleted HCT116 cells – cell-based, HCT116 PTEN knockout, dose response (AID 1047); type: functional;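 note: HCT116 colon tumor cells with PTEN knocked out; cells exposed to compound for 60 hours before readout; potency for loss of cell viability measured by luminescence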
[14] = viability loss in HepG2 hepatoma cells – cell-based, ATP luminescence, cherry-pick, activator set 2, cytotoxicity control, dose response (AID 1053143); type: functional
INS1 = assay: INS-1E survival protection against cytokine death – cell-based, luminescence, retest, dose response (AID 449756); type: functional; details: Rattus norvegicus;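 note: cell death triggered by IL-1 beta plus TNF-alpha plus IFN-gamma mixture; protective hits raise ATP signal compared with cytokine alone wells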
Cytochrome P450 2C19 = Cytochrome P450 2C19 (Homo sapiens, UniProt P33261); assay: Cytochrome panel assay with activity outcomes. Panel member name: p450-cyp2c19 Compounds with AC50 equal or less than 10 uM are considered active; type: functional; details: read-out: AC50
[15] = NIH3T3 cell viability loss – ATP luminescence, mouse fibroblasts, counter-screen, dose response (AID 2010); type: functional, cell-based;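 note: cells exposed to compound for about 90 hours before reading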
[16] = viability of HCT116 lacking mutant beta-catenin – cell-based, human colon tumor, dose response (AID 1045); type: functional;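 note: HCT116 colon tumor cells with beta catenin knocked out; cells exposed to compound for 60 hours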
[17] = Trypanosoma cruzi growth suppression in host cells – NIH3T3 host cells, beta-gal luminescence, confirmation (AID 2044); type: functional, cell-based;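 note: intracellular parasites grown in NIH/3T3 mouse fibroblasts as host cells; luminescent beta-galactosidase reporter signal from transgenic T. cruzi replicating inside host cells; inhibitors lower the luminescence signal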

Chain of Cytochrome P450 2C19 (P33261 whole entry): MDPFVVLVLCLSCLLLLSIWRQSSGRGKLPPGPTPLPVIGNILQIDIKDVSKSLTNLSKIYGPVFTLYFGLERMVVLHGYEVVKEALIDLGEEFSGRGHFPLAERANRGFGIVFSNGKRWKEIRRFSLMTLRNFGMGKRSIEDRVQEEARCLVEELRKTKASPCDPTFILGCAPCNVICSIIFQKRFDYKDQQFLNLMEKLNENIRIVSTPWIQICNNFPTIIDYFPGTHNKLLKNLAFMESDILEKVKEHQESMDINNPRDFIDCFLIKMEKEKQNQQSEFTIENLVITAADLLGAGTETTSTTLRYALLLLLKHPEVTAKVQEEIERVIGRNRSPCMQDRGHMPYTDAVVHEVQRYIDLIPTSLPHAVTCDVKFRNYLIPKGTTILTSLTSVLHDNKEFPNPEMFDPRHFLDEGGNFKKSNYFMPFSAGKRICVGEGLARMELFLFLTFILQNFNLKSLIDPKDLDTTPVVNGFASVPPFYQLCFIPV

Structure (SMILES): O=C1CC(=O)Nc2cc(S(=O)(=O)N3CCN(c4cccc(C(F)(F)F)c4)CC3)ccc2N1
- IC50 [1]: > 83.3 µM (inactive)
- IC50 [2]: > 109 µM (inactive)

Structure (SMILES): COc1ccc(C#Cc2ccc3c(c2)[C@H]2[C@H](CCN2Cc2nccs2)[C@@H](CO)N3)cc1
- AC50 [3]: 74.7 µM (active)
- AC50 [4]: 3.44 µM (active)
- AC50 [5]: 1.9 µM (active)
- AC50 [6]: 2.06 µM (active)
- AC50 [7]: 2.52 µM (active)

Structure (SMILES): OC[C@@H]1[C@H](c2ccc(C#Cc3ccccc3F)cc2)[C@H]2CN(Cc3cncnc3)CCCCN12
- AC50 [8]: 10.8 µM (active)
- AC50 [5]: 3.54 µM (active)

Structure (SMILES): COc1ccccc1NC(=O)c1ccccc1NC(=O)c1cc(Cl)ccc1NC(=O)c1ccco1
- IC50 (Estrogen receptor): 12.5 µM (active)
- IC50 [1]: > 83.3 µM (inactive)
- IC50 [2]: > 109 µM (inactive)

Structure (SMILES): COc1ccc(OC)c(C(=O)c2ccc(C(=O)O)cc2)c1
- IC50 [1]: > 83.3 µM (inactive)
- EC50 [9]: > 195 µM (not active)
- IC50 [2]: > 109 µM (inactive)

Structure (SMILES): O=C1NC(=O)N(CCc2ccc(F)cc2)C(=O)/C1=C/NNC(=O)c1ccncc1
- EC50 (cells): > 29.9 µM (inactive)
- IC50 (Galanin receptor type 3): > 29.9 µM (inactive)

Structure (SMILES): CC(C)N1CC2(CN(Cc3ccc(F)cc3)C2)Oc2c(NC(=O)c3ccncc3)cccc2C1=O
- AC50 [10]: 0.876 µM (active)

Structure (SMILES): COc1ccc(-c2cc(C(=O)N3CCOCC3)no2)cc1
- AC50 [11]: 10.4 µM (active)
- AC50 [12]: 8.26 µM (active)

Structure (SMILES): C[C@@H]1CCCCO[C@H](CN(C)Cc2ccc(Cl)c(Cl)c2)[C@@H](C)CN([C@H](C)CO)C(=O)c2cc(N(C)C)ccc2O1
- AC50 [10]: 2.73 µM (active)

Structure (SMILES): O=C(/C(=C/c1ccc(Cl)cc1)c1nc2ccccc2[nH]1)c1ccccc1
- EC50 [13]: 3.64 µM (active)
- AC50 [14]: 7.94 µM (active)
- AC50 (INS1): 2.98 µM (active)
- AC50 (Cytochrome P450 2C19): 1.58 µM (inconclusive)
- EC50 [15]: > 60 µM (not active)
- EC50 [16]: 3.11 µM (active)
- EC50 [17]: 0.824 µM (active)

Structure (SMILES): Cc1ccc(NC(=O)Nc2ccc(F)c(Cl)c2)cc1
- AC50 [14]: 33.1 µM (active)
